Experimental data taken from patent EP1100481B1, “PHARMACEUTICAL FORMULATIONS COMPRISING BECLOMETHASONE DIPROPIONATE FOR THE TREATMENT OF INFLAMMATORY BOWEL DISEASE” (CHIESI FARMACEUTICI S.p.A., priority 1998, dated 2000).

Assay: Pharmacokinetic-scintigraphic study of systemic absorption
Assay type: in vivo
Conditions: healthy volunteers
Procedure: The disintegration behavior of the tablets was also evaluated in vivo, at the intestinal site, in a study carried out on 8 healthy volunteers. A scintigraphic technique was employed as it is suitable for evaluating the position and integrity of the tablet within the gastrointestinal tract (Steed K.P. et al. Int J Pharmaceutics 1994; 112:199-206). […] These findings confirmed that the modified-relase tablets of the invention meet the requirements considered necessary for a formulation designed for the topical treatment of inflammatory bowel disease.

## CCC(=O)OCC(=O)[C@@]1(OC(=O)CC)[C@@H](C)C[C@H]2[C@@H]3CCC4=CC(=O)C=C[C@]4(C)[C@@]3(Cl)[C@@H](O)C[C@@]21C [BDP, beclomethasone dipropionate]
  systemic absorption of unmetabolised BDP and/or of its metabolites: absence of systemic absorption
